Test results reported in US9302999B2, “Substituted triazoles as herbicides” (E. I. DU PONT DE NEMOURS AND COMPANY, priority 2012, dated 2016).

How the values were obtained:
Assay type in all cases: in vivo
[1] = test system: barnyardgrass (Echinochloa crus-galli); assay: Test A pre-/postemergence: barnyardgrass; conditions: 1000 g ai/ha
Method in brief: (§1)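 Soil medium was loam blended with sand; treatments pre- and postemergence were applied concurrently, postemergence at one- to two-leaf stage. Approximately ten days in greenhouse preceded visual comparison with untreated controls, scored 0 (no effect) to 100 (complete control).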

[2] = test system: crabgrass, large (large crabgrass, Digitaria sanguinalis); assay: Test A pre-/postemergence: crabgrass, large; conditions: 1000 g ai/ha
Method in brief: as §1

[3] = test system: pigweed (Amaranthus retroflexus); assay: Test A pre-/postemergence: pigweed; conditions: 1000 g ai/ha
Method in brief: as §1

[4] = test system: wheat (Triticum aestivum); assay: Test A pre-/postemergence: wheat; conditions: 1000 g ai/ha
Method in brief: as §1

[5] = test system: blackgrass (Alopecurus myosuroides); assay: Test C pre-/postemergence: blackgrass
Method in brief: (§2)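 Visual injury scored 0–100 (100 = complete control) against untreated controls after 13–15 greenhouse days. Surfactant-containing solvent formulations applied either to soil after sowing (loam/sand) or over 1- to 4-leaf plants, 2–18 cm tall.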

corn (Zea mays) = assay: Test C pre-/postemergence: corn
Method in brief: as §2

[6] = test system: large crabgrass (Digitaria sanguinalis); assay: Test C pre-/postemergence: large crabgrass
Method in brief: as §2

[7] = test system: foxtail, giant (giant foxtail, Setaria faberii); assay: Test C pre-/postemergence: foxtail, giant
Method in brief: as §2

[8] = test system: lambsquarters (Chenopodium album); assay: Test C pre-/postemergence: lambsquarters
Method in brief: as §2

[9] = test system: morningglory (Ipomoea coccinea); assay: Test C pre-/postemergence: morningglory
Method in brief: as §2

[10] = test system: nutsedge, yellow (yellow nutsedge, Cyperus esculentus); assay: Test C pre-/postemergence: nutsedge, yellow
Method in brief: as §2

[11] = Postemergence, visual rating on 0 to 100 scale (0 no effect, 100 complete control), approximately ten days
[12] = Preemergence, 0 to 100 scale, 0 is no effect, 100 is complete control
[13] = Postemergence, 31 g ai/ha, scale 0 to 100 (0 no effect, 100 complete control)
[14] = Postemergence, 62 g ai/ha, scale 0 to 100 (0 no effect, 100 complete control)
[15] = Postemergence, 125 g ai/ha, scale 0 to 100, 0 no effect, 100 complete control
[16] = Postemergence, 250 g ai/ha, scale 0 to 100
[17] = Preemergence, 31 g ai/ha, scale of 0 to 100, 0 is no effect, 100 is complete control
[18] = Preemergence, 62 g ai/ha, scale 0 to 100, 0 no effect, 100 complete control
[19] = Preemergence, 125 g ai/ha, scale 0 to 100, 0 no effect, 100 complete control
[20] = Preemergence, 250 g ai/ha, scale 0 to 100, 0 no effect, 100 complete control
[21] = Preemergence, 62 g ai/ha, scale of 0 to 100, 0 is no effect, 100 is complete control

Cc1nn(-c2ccc(C(F)(F)F)cn2)nc1Cc1cccc(C(F)(F)F)c1 [Compound 106]
65: Plant response rating, Crabgrass, Large [6, 15] | Plant response rating, Crabgrass, Large [6, 16] | Plant response rating, Foxtail, Giant [7, 17]
60: Plant response rating, Blackgrass [5, 16] | Plant response rating, Morningglory [9, 20]
50: Barnyardgrass plant response rating [1, 12] | Plant response rating, Blackgrass [5, 17] | Plant response rating, Blackgrass [5, 18]
20: Plant response rating, Morningglory [9, 14]
100: Pigweed plant response rating [3, 11] | Plant response rating, Crabgrass, Large [6, 17] | Plant response rating, Crabgrass, Large [6, 21] | Plant response rating, Crabgrass, Large [6, 19] | Plant response rating, Crabgrass, Large [6, 20] | Plant response rating, Foxtail, Giant [7, 19] | Plant response rating, Foxtail, Giant [7, 20] | Plant response rating, Lambsquarters [8, 14] | Plant response rating, Lambsquarters [8, 15] | Plant response rating, Lambsquarters [8, 16] | Plant response rating, Lambsquarters [8, 21] | Plant response rating, Lambsquarters [8, 19] | Plant response rating, Lambsquarters [8, 20]
0: Wheat plant response rating [4, 12] | Plant response rating, Corn (corn (Zea mays); [17]) | Plant response rating, Corn (corn (Zea mays); [18]) | Plant response rating, Corn (corn (Zea mays); [19]) | Plant response rating, Morningglory [9, 13] | Plant response rating, Morningglory [9, 17] | Plant response rating, Morningglory [9, 21] | Plant response rating, Nutsedge, Yellow [10, 13] | Plant response rating, Nutsedge, Yellow [10, 14] | Plant response rating, Nutsedge, Yellow [10, 15] | Plant response rating, Nutsedge, Yellow [10, 16] | Plant response rating, Nutsedge, Yellow [10, 17] | Plant response rating, Nutsedge, Yellow [10, 21] | Plant response rating, Nutsedge, Yellow [10, 19] | Plant response rating, Nutsedge, Yellow [10, 20]
95: Plant response rating, Blackgrass [5, 20]
90: Crabgrass, Large plant response rating [2, 12] | Pigweed plant response rating [3, 12] | Plant response rating, Blackgrass [5, 19]
85: Plant response rating, Foxtail, Giant [7, 21] | Plant response rating, Lambsquarters [8, 17]
30: Plant response rating, Blackgrass [5, 13]
40: Barnyardgrass plant response rating [1, 11] | Plant response rating, Blackgrass [5, 14] | Plant response rating, Crabgrass, Large [6, 13] | Plant response rating, Foxtail, Giant [7, 13] | Plant response rating, Foxtail, Giant [7, 14] | Plant response rating, Morningglory [9, 15] | Plant response rating, Morningglory [9, 16]
80: Crabgrass, Large plant response rating [2, 11] | Plant response rating, Lambsquarters [8, 13]
45: Plant response rating, Blackgrass [5, 15]
10: Wheat plant response rating [4, 11] | Plant response rating, Corn (corn (Zea mays); [13]) | Plant response rating, Corn (corn (Zea mays); [20]) | Plant response rating, Morningglory [9, 19]
55: Plant response rating, Corn (corn (Zea mays); [16]) | Plant response rating, Crabgrass, Large [6, 14] | Plant response rating, Foxtail, Giant [7, 15] | Plant response rating, Foxtail, Giant [7, 16]
15: Plant response rating, Corn (corn (Zea mays); [14]) | Plant response rating, Corn (corn (Zea mays); [15])
